Assay results as given in patent US4963570A, “1-(acetylaminophenyl)-2-aminopropanone derivatives and pharmaceutical compositions thereof” (Laboratoire L. Lafon, priority 1983, dated 1990).
“Also recorded” adds a separate entry of the source. Where a name gives a salt, the structure may show the parent alone.

Columns and labels:
CNS = experiment: overall neuropsychopharmacological (CNS) profile; type: in vivo, mouse; rat; conditions: i.p., mice and rats; dose not stated; hydrochloride
Description: The neuropsychopharmacological study of CRL 41 219 was carried out as indicated above for CRL 41 224.
The neuropsychopharmacological study of CRL 41 220 was carried out in accordance with the procedures given above for CRL 41 224.

mice [1] = experiment: asphyxiant anoxia (gallamine triiodoethylate); type: in vivo, mouse; conditions: mice, i.p.; gallamine triiodoethylate 32 mg/kg i.p.
Description: Groups of 10 mice receive CRL 41 224 half an hour before the intraperitoneal administration of 32 mg/kg of gallamine triiodoethylate (reference curarizing agent).

mice [2] = experiment: action on the behavioral despair; type: in vivo, mouse; conditions: i.p., 8 and especially 32, 128 mg/kg
From the text: Half an hour after they have received CRL 41 224, groups of 6 mice are placed in a beaker filled with water to a height of 6 cm. The total period of immobility between the 2nd and 6th minutes following immersion is noted.

mice [3] = experiment: motility reduced by hypoxic aggression; type: in vivo, mouse; conditions: i.p., 8, 32 and especially 128 mg/kg
Description: Half an hour after they have received CRL 41 224, the mice (10 per dose, 20 control animals) are subjected to acute hypobaric anoxia [pressure reduction of 600 mm Hg (i.e. about 8×10^4 Pa) in 90 seconds; release of vacuum in 45 seconds] and are then placed in an actimeter, where their motility is recorded for 10 minutes.

rats [4] = experiment: interaction with apomorphine in rats; type: in vivo, rat; conditions: i.p., 16 and especially 64 mg/kg, apomorphine 0.5 mg/kg s.c.
Description: CRL 41 224 is administered to groups of 6 rats 0.5 hour before the subcutaneous injection of 0.5 mg/kg of apomorphine.

mice [5] = experiment: motility reduced by habituation to the enclosure; type: in vivo, mouse; conditions: i.p., 32 and 128 mg/kg
Description: After they have stayed in the actimeters for 18 hours, the mice (6 per dose, 12 control animals) receive CRL 41 224. They are immediately returned to their respective enclosures and, half an hour later, their motility is recorded for 30 minutes.

mice [6] = experiment: interaction with barbital; type: in vivo, mouse; conditions: mice, i.p.
Description: Half an hour after the administration of CRL 41 224, groups of 10 mice receive an intraperitoneal injection of barbital (220 mg/kg).

mice [7] = experiment: action on the intergroup aggression; type: in vivo, mouse; conditions: i.p., 128 mg/kg
Description: After they have stayed for 3 weeks in the 2 halves of a cage divided by an opaque partition, groups of 3 mice receive CRL 41 224. Half an hour later, the two groups from the same cage are brought together by removal of the partition, and the number of fights which occur in 10 minutes is noted. Half the test is performed on ordinary mice (NMRI, C.E.R. January) and half on NMRI (Iffa Credo) mice.

rats [8] = experiment: interaction with amphetamine; type: in vivo, rat; conditions: rats, i.p., 16 and especially 64 mg/kg; amphetamine 2 mg/kg i.p.
Description: Amphetamine (2 mg/kg) is injected intraperitoneally into groups of 6 rats 30 minutes after the administration of CRL 41 224.

mice [9] = experiment: action on the spontaneous motility (actimeter); type: in vivo, mouse; conditions: mice, i.p., 8 and especially 32, 128 mg/kg
Description: 0.5 hour after they have received CRL 41 224, the mice (6 per dose, 12 control animals) are placed in an actimeter, where their motility is recorded for 30 minutes.

rats [10] = experiment: overall behavior and reactivities in rats; type: in vivo, rat; conditions: i.p.
Description: (§1) Groups of three animals are observed before and then 0.25 hour, 0.50 hour, 1 hour, 2 hours, 3 hours and 24 hours after the administration of CRL 41 224.

mice [11] = experiment: interaction with reserpine; type: in vivo, mouse; conditions: mice, i.p.
Description: Four hours after the intraperitoneal injection of 2.5 mg/kg of reserpine, groups of 6 mice receive CRL 41 224.

[12] = test system: peripheral α-adrenergic stimulation; experiment: signs of peripheral adrenergic stimulation; type: in vivo, mouse; rat; conditions: i.p.; dose not stated
Description: as §1

mice [13] = experiment: interaction with apomorphine in mice; type: in vivo, mouse; conditions: mice, i.p., 8, 32 and 128 mg/kg; apomorphine 1 or 16 mg/kg s.c.
Description: Groups of 6 mice receive CRL 41 224 0.5 hour before the subcutaneous injection of 1 or 16 mg/kg of apomorphine.

mice [14] = experiment: interaction with oxotremorine; type: in vivo, mouse; conditions: mice
Description: CRL 41 224 is administered to groups of 6 mice 0.5 hour before the intraperitoneal injection of 0.5 mg/kg of oxotremorine.

mice [15] = experiment: four plate test, traction and electric shock; type: in vivo, mouse; conditions: mice, i.p., 128 mg/kg
Description: The test is performed on groups of 10 mice 30 minutes after the administration of CRL 41 224.

mice [16] = experiment: overall behavior and reactivities in mice; type: in vivo, mouse; conditions: mice, i.p.
Description: as §1

## CCNC(C)C(=O)c1ccc(NC(C)=O)cc1 (stereo not drawn) [CRL 41 224, 1-(4-acetylaminophenyl)-2-ethylaminopropanone hydrochloride]
CNS
  overall action on the CNS: antidepressant effects; also recorded: stimulant effects; also recorded: behaves as an antidepressant for the CNS
Mice [1]
  time taken for convulsions and death to occur following asphyxiant anoxia: does not change the time taken for convulsions and death to occur
Mice [2]
  period of immobility (forcibly immersed mice): reduces the period of immobility
Mice [3]
  motor recovery after acute hypobaric anoxia: distinct improvement in the motor recovery
Rats [4]
  stereotypies induced by apomorphine: potentiation of the stereotypies induced by apomorphine
Mice [5]
  motor activity of mice accustomed to their enclosure: distinct resumption in the motor activity
Mice [6]; 32 mg/kg
  antagonism of the sleep induced by barbital: total antagonism
Mice [6]; as from 2 mg/kg, barbital 220 mg/kg i.p.
  duration of the sleep induced by barbital: reduces the duration of the sleep induced by barbital
Mice [7]
  number of fights: reduces the number of fights
Rats [8]
  stereotypies induced by amphetamine: potentiation of the stereotypies induced by amphetamine
Mice [9]
  spontaneous motor activity: increases the spontaneous motor activity
Rats [10]; 1 mg/kg
  mydriasis: brief mydriasis
  mydriasis, time of appearance after administration: 0.5 h
Rats [10]; 4 mg/kg
  mydriasis, duration: 2 h
Rats [10]; 16 mg/kg
  mydriasis, duration: 3 h
  stereotypies, duration: 3 h
Rats [10]; 64 mg/kg
  excitation, duration: 1 h
  hyperthermia, duration: 3 h
  hyperthermia, temperature change: +1.5 °C
  increase in the reactivity to touch and muscular tonus, duration: 3 h
  mydriasis, duration: 3 h
  piloerection, duration: 1 h
  stereotypies, duration: 3 h
Mice [11]; 128 mg/kg
  ptosis induced by reserpine: reduces the intensity of the ptosis induced by reserpine
Mice [11]; 32 and 128 mg/kg
  significance of the antagonism of hypothermia induced by reserpine: significant
Mice [11]; as from 2 mg/kg, reserpine 2.5 mg/kg i.p.
  hypothermia induced by reserpine: opposes the hypothermia induced by reserpine
[12]
  peripheral adrenergic stimulation, overall: peripheral α-adrenergic stimulant effects
Mice [13]
  hypothermia induced by apomorphine: opposes the hypothermia induced by apomorphine
  righting behavior and stereotypy behavior (apomorphine): without modifying the righting behavior and stereotypy behavior
Mice [14]; i.p.
  signs of peripheral cholinergic stimulation induced by oxotremorine: does not modify the signs of peripheral cholinergic stimulation
Mice [14]; i.p., 2, 8 and especially 32, 128 mg/kg, oxotremorine 0.5 mg/kg i.p.
  hypothermic action of oxotremorine: opposes the hypothermic action of oxotremorine
Mice [14]; i.p., 8, 32 and especially 128 mg/kg
  trembling induced by oxotremorine: distinctly reduces the intensity of the trembling induced by oxotremorine
Mice [15]
  convulsant effects of electric shock: does not aggravate the convulsant effects
  lethal effects of electric shock: does not modify the lethal effects of electric shock
  motor incapacity (traction): does not cause major motor incapacity
  number of punished passes (four plate test): increase in the number of punished passes
Mice [16]; 32 mg/kg
  excitation, duration: 3 h
Mice [16]; 128 mg/kg
  excitation, duration: 3 h
  hyperthermia, temperature change: +0.9 °C
  increase in the reactivity to touch and muscular tonus, duration: 24 h
  moderate mydriasis, duration: 3 h
Mice [16]; 2 and 8 mg/kg
  forms of behavior, reactivities and variations in pupil diameter and rectal temperature: substantially comparable to those of the control group
